Tests used:
Type in all cases: functional
HT-29 = assay: Antiproliferative activity against human HT-29 cells
UO-31 = assay: Antiproliferative activity against human UO31 cells
OVCAR-8 = assay: Antiproliferative activity against human OVCAR8 cells
HOP-62 = assay: Antiproliferative activity against human HOP62 cells
HCC 2998 = assay: Antiproliferative activity against human HCC2998 cells
BT-549 = assay: Antiproliferative activity against human BT549 cells
UACC-62 = assay: Antiproliferative activity against human UACC62 cells
TK-10 = assay: Antiproliferative activity against human TK10 cells
SN12C = assay: Antiproliferative activity against human SN12C cells
Malme-3M = assay: Antiproliferative activity against human MALME-3M cells
[1] = Antiproliferative activity against human […] cells
SK-OV-3 = assay: Antiproliferative activity against human SKOV3 cells
OVCAR-5 = assay: Antiproliferative activity against human OVCAR5 cells
OVCAR-4 = assay: Antiproliferative activity against human OVCAR4 cells
CAKI-1 = assay: Antiproliferative activity against human Caki1 cells
EKVX = assay: Antiproliferative activity against human EKVX cells
MDA-MB-231 = assay: Antiproliferative activity against human MDA-MB-231 cells
A498 = assay: Antiproliferative activity against human A498 cells
HOP-92 = assay: Antiproliferative activity against human HOP92 cells
SK-MEL-5 = assay: Antiproliferative activity against human SK-MEL-5 cells
NCI-H522 = assay: Antiproliferative activity against human NCI-H522 cells
NCI-H23 = assay: Antiproliferative activity against human NCI-H23 cells
NCI-H226 = assay: Antiproliferative activity against human NCI-H226 cells
[2] = Antiproliferative activity against human Hs 578T cells
ACHN = assay: Antiproliferative activity against human ACHN cells
CCRF-CEM = assay: Antiproliferative activity against human CCRF-CEM cells
OVCAR-3 = assay: Antiproliferative activity against human OVCAR-3 cells
HCT-15 = assay: Antiproliferative activity against human HCT15 cells
U-251 = assay: Antiproliferative activity against human U251 cells
SF-295 = assay: Antiproliferative activity against human SF295 cells
SK-MEL-2 = assay: Antiproliferative activity against human SK-MEL-2 cells
UACC-257 = assay: Antiproliferative activity against human UACC257 cells
KM12 = assay: Antiproliferative activity against human KM12 cells
HCT-116 = assay: Antiproliferative activity against human HCT116 cells
NCI-H322M = assay: Antiproliferative activity against human NCI-H322M cells
T47D = assay: Antiproliferative activity against human T47D cells
HL-60(TB) = assay: Antiproliferative activity against human HL-60(TB) cells
IGROV-1 = assay: Antiproliferative activity against human IGROV1 cells
MCF7 = assay: Antiproliferative activity against human MCF7 cells
A549 = assay: Antiproliferative activity against human A549 cells
K562 = assay: Antiproliferative activity against human K562 cells
MDA-MB-435 = assay: Antiproliferative activity against human MDA-MB-435 cells
786-0 = assay: Antiproliferative activity against human 786-0 cells
NCI-H460 = assay: Antiproliferative activity against human NCI-H460 cells
SNB-19 = assay: Antiproliferative activity against human SNB19 cells
SK-MEL-28 = assay: Antiproliferative activity against human SK-MEL-28 cells
SNB-75 = assay: Antiproliferative activity against human SNB75 cells
COLO 205 = assay: Antiproliferative activity against human COLO205 cells
SR = assay: Antiproliferative activity against human SR cells
RXF 393 = assay: Antiproliferative activity against human RXF393 cells
SF-539 = assay: Antiproliferative activity against human SF539 cells
LOX IMVI = assay: Antiproliferative activity against human LOXIMVI cells
MOLT-4 = assay: Antiproliferative activity against human MOLT4 cells
SF-268 = assay: Antiproliferative activity against human SF268 cells
M14 = assay: Antiproliferative activity against human M14 cells
DU-145 = assay: Antiproliferative activity against human DU145 cells
SW-620 = assay: Antiproliferative activity against human SW620 cells
PC-3 = assay: Antiproliferative activity against human PC3 cells

## CNC(=O)NC[C@H]1O[C@@H](n2cnc3c(NC(=O)Nc4ccccc4)ncnc32)[C@H](O[Si](C)(C)C(C)(C)C)[C@@H]1CC(=O)N(C)OC
HT-29
  GI50: 5.37 µM
UO-31
  GI50: 7.79 µM
OVCAR-8
  GI50: 9.02 µM
HOP-62
  GI50: 24.9 µM
HCC 2998
  GI50: 30.6 µM
BT-549
  GI50: 29 µM
UACC-62
  GI50: 41.9 µM
TK-10
  GI50: 20.5 µM
SN12C
  GI50: 85.3 µM
Malme-3M
  GI50: 11.4 µM
[1]
  GI50: 1.58 µM
SK-OV-3
  GI50: 52.7 µM
OVCAR-5
  GI50: 38.2 µM
OVCAR-4
  GI50: 53 µM
CAKI-1
  GI50: 53.8 µM
EKVX
  GI50: 26.4 µM
MDA-MB-231
  GI50: 12.3 µM
A498
  GI50: 3.87 µM
HOP-92
  GI50: 2.71 µM
SK-MEL-5
  GI50: 5.81 µM
NCI-H522
  GI50: 11.1 µM
NCI-H23
  GI50: 57.2 µM
NCI-H226
  GI50: 41.9 µM
[2]
  GI50: 5.79 µM
ACHN
  GI50: 14.4 µM
CCRF-CEM
  GI50: 6.37 µM
OVCAR-3
  GI50: 7.11 µM
HCT-15
  GI50: 6.47 µM
U-251
  GI50: 5.66 µM
SF-295
  GI50: 9.09 µM
SK-MEL-2
  GI50: 14.9 µM
UACC-257
  GI50: 22.6 µM
KM12
  GI50: 23.9 µM
HCT-116
  GI50: 4.2 µM
NCI-H322M
  GI50: > 100 µM
T47D
  GI50: 13.9 µM
HL-60(TB)
  GI50: 0.00181 µM
IGROV-1
  GI50: 3.72 µM
MCF7
  GI50: 5.59 µM
A549
  GI50: 9.35 µM
K562
  GI50: 3.12 µM
MDA-MB-435
  GI50: 10.9 µM
786-0
  GI50: 9.01 µM
NCI-H460
  GI50: 7.49 µM
SNB-19
  GI50: > 100 µM
SK-MEL-28
  GI50: 7.77 µM
SNB-75
  GI50: 12.7 µM
COLO 205
  GI50: 12.3 µM
SR
  GI50: 1.27 µM
RXF 393
  GI50: 9.74 µM
SF-539
  GI50: 22.3 µM
LOX IMVI
  GI50: 7.3 µM
MOLT-4
  GI50: 2.23 µM
SF-268
  GI50: 8.29 µM
M14
  GI50: 15.2 µM
DU-145
  GI50: 16.6 µM
SW-620
  GI50: > 100 µM

## CCOC(=O)C[C@H]1[C@@H](O[Si](C)(C)C(C)(C)C)[C@H](n2cnc3c(NC(=O)Nc4ccccc4)ncnc32)O[C@@H]1CNC(=O)NC
HT-29
  GI50: 4.2 µM
UO-31
  GI50: 12.1 µM
OVCAR-8
  GI50: 4.92 µM
HOP-62
  GI50: 8.96 µM
HCC 2998
  GI50: > 100 µM
BT-549
  GI50: > 100 µM
UACC-62
  GI50: > 100 µM
TK-10
  GI50: 12.4 µM
SN12C
  GI50: 9.1 µM
Malme-3M
  GI50: 10.3 µM
[1]
  GI50: 1.09 µM
SK-OV-3
  GI50: 21 µM
OVCAR-5
  GI50: 31.1 µM
OVCAR-4
  GI50: 12.3 µM
CAKI-1
  GI50: 29.7 µM
EKVX
  GI50: 17.7 µM
MDA-MB-231
  GI50: 3.96 µM
A498
  GI50: 3.34 µM
HOP-92
  GI50: < 0.01 µM
SK-MEL-5
  GI50: 4.34 µM
NCI-H522
  GI50: 4.36 µM
NCI-H23
  GI50: 33.3 µM
NCI-H226
  GI50: > 100 µM
[2]
  GI50: 3.6 µM
ACHN
  GI50: 8.55 µM
CCRF-CEM
  GI50: 6.69 µM
OVCAR-3
  GI50: 4.59 µM
HCT-15
  GI50: 8.5 µM
U-251
  GI50: 4.69 µM
SF-295
  GI50: 5.73 µM
SK-MEL-2
  GI50: 5.42 µM
UACC-257
  GI50: 5.68 µM
KM12
  GI50: 3.95 µM
HCT-116
  GI50: 3.2 µM
PC-3
  GI50: 2.25 µM
NCI-H322M
  GI50: > 100 µM
T47D
  GI50: 2.55 µM
HL-60(TB)
  GI50: 0.00301 µM
IGROV-1
  GI50: 3.85 µM
MCF7
  GI50: 3.42 µM
A549
  GI50: 4.18 µM
K562
  GI50: 3.59 µM
MDA-MB-435
  GI50: 6.21 µM
786-0
  GI50: 2 µM
NCI-H460
  GI50: 5.54 µM
SNB-19
  GI50: 29 µM
SK-MEL-28
  GI50: 6.85 µM
SNB-75
  GI50: 4.56 µM
COLO 205
  GI50: 3.84 µM
SR
  GI50: 2.23 µM
RXF 393
  GI50: 2.01 µM
SF-539
  GI50: 5.19 µM
LOX IMVI
  GI50: 5.46 µM
MOLT-4
  GI50: 2.39 µM
SF-268
  GI50: 6.53 µM
M14
  GI50: 2.51 µM
DU-145
  GI50: 4.97 µM
SW-620
  GI50: 4.8 µM
